Experimental findings from patent publication US11084781B2, “Diarylureas as CB1 allosteric modulators” (Research Triangle Institute, priority 2017, dated 2021) are described below.

“Also recorded” adds a separate entry of the source.

By IC50 is commonly meant the concentration at which inhibition is half-maximal.

In data set [1] the target is T1, CB1 receptor (Mus musculus, UniProt P47746).
T1 construct: from tissue; host or cells: cerebellar membranes of adult male CD-1 mice
The experiment in a line: [35S]GTP-γ-S binding assay in mouse cerebellar membranes, CP55,940-stimulated. The format is biochemical. The conditions noted are these: for IC50: CP55,940 (100 nM) stimulation, mean (95% confidence interval). For orientation: GTPγS is a poorly hydrolysed GTP analogue; its binding reports G protein activation.
Experimental: Cerebella from adult male CD-1 mice were dissected on ice, snap frozen, and stored at −80° C. until the day of the experiment. Cerebella were homogenized by polytron in membrane buffer (50 mM Tris, 3 mM MgCl2, 0.2 mM EGTA, 100 mM NaCl, pH 7.4) on ice, centrifuged for 10 min at 40,000×g at 4° C. The supernatant was discarded and the pellet was suspended in membrane buffer, homogenized, and centrifuged again for 10 min at 40,000×g. The pellet was resuspended in membrane buffer and protein quantified by Bradford method.
CB1 receptor agonist CP55,940 was employed as the agonist probe.

Data set [2] is described as follows: Metabolic stability in rat liver microsomes. In kind it is in vitro ADME. The protocol: Metabolic stability assessment was performed by Paraza Pharma Inc. (Montreal, Canada).
Compounds were incubated with rat liver microsomes at 37° C. for a total of 45 minutes. The reaction was performed at pH 7.4 in 100 mM potassium phosphate buffer containing 0.5 mg/mL of rat liver microsomal protein. Phase I metabolism was assessed by adding NADPH to a final concentration of 1 mM and collecting samples at time points 0, 5, 15, 30 and 45 minutes. All collected samples were quenched 1:1 with ice-cold stop solution (1 μM labetalol and 1 μM glyburide in acetonitrile), and centrifuged to remove precipitated protein. Resulting supernatants were further diluted 1:4 with acetonitrile:water (1:1). Samples were analyzed by LC/MS/MS and calculations for half-life, and in-vitro clearance were accomplished using Microsoft Excel (2007).
(In general: Microsomes from liver hold many membrane-bound enzymes, among them those of drug oxidation.)

For data set [3], the target named is T2, human CB1 receptor (Homo sapiens, UniProt P21554).
T2 construct: host or cells: CHO-RD-HGA16 cells (CHO cells overexpressing promiscuous Galpha16)
T2 sequence (P21554 whole entry): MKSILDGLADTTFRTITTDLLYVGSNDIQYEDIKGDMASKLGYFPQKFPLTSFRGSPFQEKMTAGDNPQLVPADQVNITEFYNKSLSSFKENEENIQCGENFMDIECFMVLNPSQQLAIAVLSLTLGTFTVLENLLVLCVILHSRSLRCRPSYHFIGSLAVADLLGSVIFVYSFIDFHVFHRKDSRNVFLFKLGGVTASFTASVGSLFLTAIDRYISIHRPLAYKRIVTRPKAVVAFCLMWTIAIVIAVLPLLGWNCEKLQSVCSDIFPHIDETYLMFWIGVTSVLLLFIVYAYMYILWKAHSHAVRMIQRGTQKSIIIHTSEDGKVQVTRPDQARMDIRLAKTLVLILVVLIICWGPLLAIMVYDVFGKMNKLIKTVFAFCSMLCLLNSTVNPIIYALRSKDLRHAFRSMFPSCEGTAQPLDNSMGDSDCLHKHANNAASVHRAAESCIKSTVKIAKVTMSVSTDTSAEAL
The data set is described as follows: CB1 calcium mobilization assay (antagonist mode, against EC80 of CP55,940). The format is cell-based. Conditions: Table 1; against EC80 (100 nM) of CP55,940; mean ± S.E.M.; read-out: CB1 calcium assay IC50.
Experimental: CHO-RD-HGA16 cells (Molecular Devices, CA) stably expressing the human CB1 receptor were plated into 96-well black-walled assay plates at 25,000 cells/well in 100 μL of Ham's F12 (supplemented with 10% fetal bovine serum, 100 units of penicillin/streptomycin, and 100 μg/mL Normocin) and incubated overnight at 37° C., 5% CO2. Calcium 5 dye (Molecular Devices, CA) was reconstituted according to the manufacturer's instructions. The reconstituted dye was diluted 1:40 in prewarmed (37° C.) assay buffer (1×HBSS, 20 mM HEPES, 2.5 mM probenecid, pH 7.4 at 37° C.). Growth medium was removed, and the cells were gently washed with 100 μL of prewarmed (37° C.) assay buffer. […] After the pretreatment incubation period, the plate was read with a FLIPR Tetra (Molecular Devices, CA). […] Relative fluorescence units (RFU) were plotted against the log of compound concentrations. Data were fit to a three-parameter logistic curve to generate IC50 values (GraphPad Prism 6.0, CA). […] Test compound RFUs were compared to the CP55,940 Emax RFUs to generate % Emax values.
In these assays, CHO cells that overexpress the promiscuous Gα16 protein were engineered to stably express the CB1 or CB2 receptor. Compounds were evaluated for their ability to decrease the mobilization of intracellular calcium levels stimulated by CP55,940.

Data set [4] addresses T2, human CB1 receptor. The data set is described as follows: CB1 calcium mobilization assay, agonist screen. Conditions: Table 1; 10,000 nM final concentration; mean ± SD. The format is cell-based. Background: Calcium flux is commonly read through the fluorescence of an indicator in the cells.
Experimental: CHO-RD-HGA16 cells (Molecular Devices, CA) stably expressing the human CB1 receptor were plated into 96-well black-walled assay plates at 25,000 cells/well in 100 μL of Ham's F12 (supplemented with 10% fetal bovine serum, 100 units of penicillin/streptomycin, and 100 μg/mL Normocin) and incubated overnight at 37° C., 5% CO2. Calcium 5 dye (Molecular Devices, CA) was reconstituted according to the manufacturer's instructions. The reconstituted dye was diluted 1:40 in prewarmed (37° C.) assay buffer (1×HBSS, 20 mM HEPES, 2.5 mM probenecid, pH 7.4 at 37° C.). Growth medium was removed, and the cells were gently washed with 100 μL of prewarmed (37° C.) assay buffer. The cells were incubated for 45 min at 37° C., 5% CO2 in 200 μL of the diluted Calcium 5 dye solution. […] Serial dilutions of the test compounds were prepared at 10× the desired final concentration in 2.25% BSA/4.5% DMSO/4.5% EtOH/assay buffer. After the dye loading incubation period, the cells were pretreated with 25 μL of the test compound serial dilutions and incubated for 15 min at 37° C. After the pretreatment incubation period, the plate was read with a FLIPR Tetra (Molecular Devices, CA). Calcium-mediated changes in fluorescence were monitored every 1 s over a 90 s time period, with the Tetra adding 25 μL of the CP55,940 EC80 concentration at the 10s time point (excitation/emission: 485/525 nm). Relative fluorescence units (RFU) were plotted against the log of compound concentrations. Data were fit to a three-parameter logistic curve to generate IC50 values (GraphPad Prism 6.0, CA). […] For agonist screens, the above procedure was followed except that cells were pretreated with 2.25% BSA/4.5% DMSO/4.5% EtOH/assay buffer and the Tetra added single concentration dilutions of the test compounds prepared at 10× the desired final concentration in 0.25% BSA/0.5% DMSO/0.5% EtOH/assay buffer. Test compound RFUs were compared to the CP55,940 Emax RFUs to generate % Emax values.
Data set [5] has as its system cocaine-seeking behavior in rats. The data set is described as follows: Reinstatement of extinguished cocaine-seeking behavior. In kind it is in vivo, rat. The protocol: Animals: Adult male Sprague-Dawley rats (Harlan, Indianapolis, Ind.) weighing 280-300 g were used in the study. Animals were housed individually on a 12/12 hr light/dark cycle (behavioral experiments were conducted during the light period) with free access to water and food except during experimental sessions. Animals were maintained and experiments conducted in accordance with the Institutional Animal Care and Use Committee, University at Buffalo, and with the 2011 Guide for the Care and Use of Laboratory Animals (Institute of Laboratory Animal Resources on Life Sciences, National Research Council, National Academy of Sciences, Washington D.C.).
Drug self-administration, extinction and reinstatement: The reinstatement procedure was described in detail elsewhere^37, 38. Briefly, rats were surgically implanted with a chronic indwelling jugular catheter. After one-week recovery, rats were trained to press the active lever (left lever) for infusion of cocaine (0.75 mg/kg/inf) under a fixed ratio [FR] schedule (starting FR=1, which was increased to FR 5 within 5 training sessions) schedule during daily 2-hr sessions for 14 days. Reinforcer deliveries were accompanied by the presentation of a stimulus light over the active lever followed by a 30-s time-out period during which lever presses had no programmed consequence. Following acquisition of cocaine self-administration, extinction of drug-seeking behavior took place during 2-hr daily sessions in which lever pressing produced no consequence. All other conditions remained unchanged. After 7 days of extinction, all rats reached the extinction criteria (total responses less than 20% of the training sessions).
Drug-induced reinstatement test was conducted on the day following the last extinction session. Rats were pretreated with vehicle, compounds 2 (15, 30 mg/kg) or 34 (10 mg/kg) 10 min prior to a priming injection of cocaine (10 mg/kg, i.p.) administered immediately before the start of the reinstatement session.
Data analyses: Data are expressed as mean±S.E.M. Differences in active lever responding between the last extinction session and reinstatement session were determined with paired t tests (within subjects comparison). The effects of compounds 2 on reinstatement were analyzed by a one-way analysis of variance (ANOVA) followed by post hoc Bonferroni's test (between subjects comparison). The effects of compounds 34 on reinstatement was analyzed by Student's t test. P<0.05 was considered statistically significant.

T1 sequence (P47746 whole entry): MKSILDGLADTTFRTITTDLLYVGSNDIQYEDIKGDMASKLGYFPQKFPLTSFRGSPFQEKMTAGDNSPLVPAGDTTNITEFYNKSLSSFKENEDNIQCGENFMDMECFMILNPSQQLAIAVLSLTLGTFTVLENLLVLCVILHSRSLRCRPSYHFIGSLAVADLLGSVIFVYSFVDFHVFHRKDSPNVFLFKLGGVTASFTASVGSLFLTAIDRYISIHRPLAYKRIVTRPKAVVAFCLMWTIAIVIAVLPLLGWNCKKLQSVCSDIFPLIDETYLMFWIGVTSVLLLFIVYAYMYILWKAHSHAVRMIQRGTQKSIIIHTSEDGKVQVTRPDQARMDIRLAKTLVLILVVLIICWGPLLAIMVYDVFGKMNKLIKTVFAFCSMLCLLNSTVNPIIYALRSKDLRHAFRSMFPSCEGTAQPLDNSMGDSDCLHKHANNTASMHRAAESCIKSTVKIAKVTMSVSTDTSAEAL

On to `O=C(Nc1ccc(Cl)cc1)Nc1cccc(-c2ccncc2)c1` [Compound 20, 3-(4-Chlorophenyl)-1-[3-(pyridin-4-yl)phenyl]urea], for which the figures for the half-inhibitory concentration (IC50) in data set [1] and in data set [3] were 407 nM and 178 ± 38 nM, respectively. The Clearance in data set [2] (0.5 mg/mL, NADPH, 37° C., mean ± S.E.M.) was 33.1 ± 1.0 µL/min/mg. Also, the “Increase in metabolic stability relative to B” value in data set [2] (half-life vs B) is on record as approximately 3 fold. For the same molecule, the “CB1 calcium assay Agonist screen (% CP55, 940 Emax)” value in data set [4] is 14.5 ± 2.5 % CP55, 940 Emax.

With `O=C(Nc1ccc(Cl)cc1)Nc1cccc(-c2cccc(-c3ccccc3)c2)c1` [Compound 38, 3-(4-Chlorophenyl)-1-[3-(3-phenylphenyl)phenyl]urea], the IC50 came out at 559 nM in data set [1] and 195 ± 40 nM in data set [3]. Besides, the “CB1 calcium assay Agonist screen (% CP55, 940 Emax)” value in data set [4] is given as 0.5 ± 0.2 % CP55, 940 Emax.

Regarding `O=C(Nc1ccc(Cl)cc1)Nc1cccc(-c2ncc[nH]2)c1` [Compound 72, 3-(4-Chlorophenyl)-1-[3-(1H-imidazol-2-yl)phenyl]urea], the IC50 stood at 343 nM in data set [1] and 529 ± 98 nM in data set [3]. The “CB1 calcium assay Agonist screen (% CP55, 940 Emax)” value in data set [4] is given as 4.3 ± 0.5 % CP55, 940 Emax.

Consider `COc1cc(-c2cccc(NC(=O)Nc3ccc(Cl)cc3)c2)ccn1` [Compound 17, 3-(4-Chlorophenyl)-1-[3-(2-methoxypyridin-4-yl)phenyl]urea], for which the results for the IC50 in data set [1] and in data set [3] were 1320 nM and 133 ± 6 nM, respectively. Further, in data set [4], the “CB1 calcium assay Agonist screen (% CP55, 940 Emax)” value was 23.4 ± 1.9 % CP55, 940 Emax.

For the molecule `O=C(Nc1ccc(Cl)cc1)Nc1cccc(-c2ccsc2)c1` [Compound 47, 3-(4-Chlorophenyl)-1-[3-(thiophen-3-yl)phenyl]urea], the IC50 came to 164 nM in data set [1] and 36 ± 1 nM in data set [3]. For the same molecule, the “CB1 calcium assay Agonist screen (% CP55, 940 Emax)” value in data set [4] is 28.9 ± 0.6 % CP55, 940 Emax.

Molecule `O=C(Nc1ccc(Cl)cc1)Nc1cccc(-c2cccc(N3CCCC3)n2)c1` [Compound B, 1-(4-Chlorophenyl)-3-{3-[6-(pyrrolidin-1-yl)pyridin-2-yl]phenyl}urea, reference compound] gave an IC50 in data set [1] of 102 nM. The “Effect on [35S]GTP-γ-S binding level” value in data set [1] (CP55,940 as agonist probe) was “dose-dependently decreased”. In addition, the “Attenuation of cocaine-induced reinstatement of cocaine-seeking behavior” value in data set [5] (dose 30 mg/kg, cocaine prime 10 mg/kg i.p.) is given as “significantly reduced cocaine-induced reinstatement behavior”; in data set [5] (pretreatment 10 min prior to cocaine prime 10 mg/kg i.p.) it was “dose-dependently attenuated; also recorded: attenuated the resumption of extinguished cocaine-seeking behavior”. The “CB1 calcium assay Agonist screen (% CP55, 940 Emax)” value in data set [4] is on record as 28.2 ± 4.8 % CP55, 940 Emax.

Regarding `O=C(Nc1ccc(Cl)cc1)Nc1cccc(-c2ccccn2)c1` [Compound 18, 3-(4-Chlorophenyl)-1-[3-(pyridin-2-yl)phenyl]urea], the results for the IC50 in data set [1] and in data set [3] were 2650 nM and 47 ± 13 nM, respectively. For the same molecule, the “CB1 calcium assay Agonist screen (% CP55, 940 Emax)” value in data set [4] is listed as 8.8 ± 3.1 % CP55, 940 Emax.

In the case of `Cc1ccc(-c2cccc(NC(=O)Nc3ccc(Cl)cc3)c2)s1` [Compound 50, 3-(4-Chlorophenyl)-1-[3-(5-methylthiophen-2-yl)phenyl]urea], the half-maximal inhibitory concentration (IC50) in data set [1] came to 372 nM; in data set [3], 42 ± 6 nM. Moreover, in data set [4], the “CB1 calcium assay Agonist screen (% CP55, 940 Emax)” value is 4.6 ± 1.4 % CP55, 940 Emax.

Turning to `O=C(Nc1ccc(Cl)cc1)Nc1cccc(-c2cnc3ccccc3c2)c1` [Compound 44, 3-(4-Chlorophenyl)-1-[3-(quinolin-3-yl)phenyl]urea], the IC50 in data set [1] stood at 651 nM; in data set [3], 516 ± 70 nM. In data set [4], the “CB1 calcium assay Agonist screen (% CP55, 940 Emax)” value was 2.6 ± 1.2 % CP55, 940 Emax.

On to `O=C(Nc1ccc(Cl)cc1)Nc1cccc(-c2cscn2)c1` [Compound 52, 3-(4-Chlorophenyl)-1-[3-(1,3-thiazol-4-yl)phenyl]urea], for which the IC50 in data set [1] was determined as 250 nM; in data set [3] it was 84 ± 6 nM. The “CB1 calcium assay Agonist screen (% CP55, 940 Emax)” value in data set [4] is reported as 8.6 ± 4.4 % CP55, 940 Emax.

Regarding `O=C(Nc1ccc(Cl)cc1)Nc1cccc(-c2cc(Cl)cc(Cl)c2)c1` [Compound 31, 3-(4-Chlorophenyl)-1-[3-(3,5-dichlorophenyl)phenyl]urea], the IC50 in data set [1] was found to be 299 nM; in data set [3] it was 22 ± 2 nM. Further, the “CB1 calcium assay Agonist screen (% CP55, 940 Emax)” value in data set [4] is reported as 15.5 ± 2.4 % CP55, 940 Emax.

For the molecule `O=C(Nc1ccc(Cl)cc1)Nc1cccc(-c2ccc(Cl)c(Cl)c2)c1` [Compound 32, 3-(4-Chlorophenyl)-1-[3-(3,4-dichlorophenyl)phenyl]urea], the IC50 turned out to be 464 nM in data set [1] and 30 ± 4 nM in data set [3]. Further, the “CB1 calcium assay Agonist screen (% CP55, 940 Emax)” value in data set [4] is reported as 10.4 ± 2.1 % CP55, 940 Emax.

Regarding `COc1cccc(-c2cccc(NC(=O)Nc3ccc(Cl)cc3)c2)c1` [Compound 23, 3-(4-Chlorophenyl)-1-[3-(3-methoxyphenyl)phenyl]urea], the IC50 in data set [1] was 827 nM; in data set [3] it was 81 ± 10 nM. Moreover, the “CB1 calcium assay Agonist screen (% CP55, 940 Emax)” value in data set [4] was 12.5 ± 1.9 % CP55, 940 Emax.

`O=C(Nc1ccc(Cl)cc1)Nc1cccc(-c2ccc[nH]2)c1` [Compound 65, 3-(4-Chlorophenyl)-1-[3-(1H-pyrrol-2-yl)phenyl]urea]: the IC50 turned out to be 40 nM in data set [1] and 169 ± 34 nM in data set [3]. The “CB1 calcium assay Agonist screen (% CP55, 940 Emax)” value in data set [4] is recorded as 13.7 ± 0.1 % CP55, 940 Emax.

For `O=C(Nc1ccc(Cl)cc1)Nc1cccc(-c2ccccc2)c1` [Compound 22, 3-(4-Chlorophenyl)-1-(3-phenylphenyl)urea], the IC50 stood at 437 nM in data set [1] and 32 ± 7 nM in data set [3]. Also, the “CB1 calcium assay Agonist screen (% CP55, 940 Emax)” value in data set [4] is recorded as 5.1 ± 0.8 % CP55, 940 Emax.

Take `Cc1cc(-c2cccc(NC(=O)Nc3ccc(Cl)cc3)c2)cs1` [Compound 49, 3-(4-Chlorophenyl)-1-[3-(5-methylthiophen-3-yl)phenyl]urea]: the values for the IC50 in data set [1] and in data set [3] were 776 nM and 40 ± 4 nM, respectively. The “CB1 calcium assay Agonist screen (% CP55, 940 Emax)” value in data set [4] is 3.7 ± 1.7 % CP55, 940 Emax.

For `O=C(Nc1ccc(Cl)cc1)Nc1cccc(-c2cccs2)c1` [Compound 48, 3-(4-Chlorophenyl)-1-[3-(thiophen-2-yl)phenyl]urea], the IC50 in data set [1] came to 573 nM; in data set [3], 67 ± 6 nM. Besides, the “CB1 calcium assay Agonist screen (% CP55, 940 Emax)” value in data set [4] is 12.8 ± 1.8 % CP55, 940 Emax.

For the molecule `O=C(Nc1ccc(Cl)cc1)Nc1cccc(-c2nccs2)c1` [Compound 53, 3-(4-Chlorophenyl)-1-[3-(1,3-thiazol-2-yl)phenyl]urea], the half-inhibitory concentration (IC50) in data set [1] is 1260 nM; in data set [3] it was 154 ± 14 nM. Also, in data set [4], the “CB1 calcium assay Agonist screen (% CP55, 940 Emax)” value is 20.1 ± 1.1 % CP55, 940 Emax.

Turning to `O=C(Nc1ccc(Cl)cc1)Nc1cccc(-c2cncs2)c1` [Compound 51, 3-(4-Chlorophenyl)-1-[3-(1,3-thiazol-5-yl)phenyl]urea], the figures for the IC50 in data set [1] and in data set [3] were 331 nM and 94 ± 9 nM, respectively. Also, the “CB1 calcium assay Agonist screen (% CP55, 940 Emax)” value in data set [4] is listed as 8.1 ± 3.1 % CP55, 940 Emax.

For the molecule `Cn1cccc1-c1cccc(NC(=O)Nc2ccc(Cl)cc2)c1` [Compound 68, 3-(4-Chlorophenyl)-1-[3-(1-methyl-1H-pyrrol-2-yl)phenyl]urea], the results for the IC50 in data set [1] and in data set [3] were 665 nM and 165 ± 14 nM, respectively. In data set [4], the “CB1 calcium assay Agonist screen (% CP55, 940 Emax)” value was 3.4 ± 2.9 % CP55, 940 Emax.

Turning to `O=C(Nc1ccc(Cl)cc1)Nc1cccc(-c2ccc3c(c2)OCO3)c1` [Compound 26, 1-[3-(2H-1,3-Benzodioxol-5-yl)phenyl]-3-(4-chlorophenyl)urea], the IC50 was determined as 619 nM in data set [1] and 70 ± 14 nM in data set [3]. Further, in data set [4], the “CB1 calcium assay Agonist screen (% CP55, 940 Emax)” value is on record as 9.8 ± 3.5 % CP55, 940 Emax.
